The structures appear in SMILES notation. Where a name gives a salt, the structure may show the parent alone.

This is an account of results in patent publication US20190117630A1, “METHODS AND DRUG COMPOSITIONS FOR TREATING LYME DISEASE” (priority 2016, published 2019).

One assay concerns Borrelia cultures. Briefly: Secondary screening, Borrelia cell viability by BacTiter-Glo Assay. The format is cell-based, B. burgdorferi. The following applies: for efficacy (Borrelia cell viability assay): at 0.31 μM, FIG. 1B. The method, then:
FIG. 1 depicts a Borrelia cell viability assay using agents (A) tetraethylthiuram disulfide, doxorubicin hydrochloride, and epirubicin hydrochloride and (B) azlocillin sodium and cephalothin sodium. The results represent mean±SD.
(§1) The Minimum Inhibitory Concentration (MIC) of the small molecules identified through screening was determined by culturing 10^6/ml Borrelia in BSK-II medium with different concentrations (0.3 μM to 160 μM) of drugs. For MIC, 1 ml cultures with respective drugs were grown in 48 well plates in triplicates, wrapped with paraffin film and placed for 72 hours at 33° C. in a humidified CO2 incubator (Forma Scientific, USA) having 5% CO2 and 95% air. Cell proliferation was assessed using bacterial counting chamber (Petroff-Hausser Counter, Horsham, Pa., USA) by phase contrast microscopy. In parallel cell proliferation was also assessed BacTiter-Glo™ Assay. The counting was performed in all the 25 squares of the central grid. The BacTiter-Glo™ Assay was performed by mixing 100 μl of culture in each well with 100 μl of BacTiter-Glo™ reagent (Promega, Madison, Wis., USA). Then, the assay was performed according to the manufacturer's instructions. Luminescence was measured on a Flex station3 micro-plate reader at luminescence 500 ms.
The viability of Borellia cultures was evaluated with BacTiter-Glo™ Assay.

Assay [1] has as its system Borrelia. Kind of assay: Determination of Minimum Inhibitory Concentration (MIC). The format is cell-based, B. burgdorferi. To be noted: Borreliella burgdorferi; 72 hours, lowest concentration with no motile spirochete by microscopy. As for the experimental part: as §1
(§2) To confirm the efficacy of the screening MIC and MBC values were evaluated. The MIC is determined as the lowest concentration at which no motile spirochete is observed by microscopy. […] The MBC was determined by sub-culturing 20 μl of the Borrelia cultures grown at different drug concentrations in fresh BSK-II medium for 21 days. The MBC value was determined when no spirochete was observed microscopically in the culture.

Assay [2] relates to Borrelia. Briefly: Determination of Minimum Bactericidal Concentration (MBC). The assay is classed as cell-based, B. burgdorferi. To be noted: Borreliella burgdorferi, 504 h; sub-culture in fresh BSK-II medium for 21 days, no spirochete observed. The method, then:
For determining minimum bactericidal concentration (MBC), 20 μl of the 10^6/ml Borrelia cultures grown in BSK-II medium for 72 hours at different drug concentrations were added to the fresh BSK-II medium and sub-cultured for 3 weeks. After 3 weeks of incubation period, the samples were observed microscopically for motile spirochetes in the culture. The MIC and MBC determinations were done thrice independently.
as §2

For the next assay, the system named is Bb. To be noted: C3H mouse model, urinary bladders, heart, ear skin.
Assay [3] has as its system doxycycline-tolerant Borrelia persisters. Briefly: Eradication of doxycycline-tolerant Bb persisters. The format is cell-based, B. burgdorferi. To be noted: 5 days, after doxycycline 2.5 μM to 40 μM for 3 days, FIG. 3B. The method, then:
So to identify the drugs that kill drug-tolerant Borrelia persisters, 10^6/ml Borrelia in BSK-II medium was treated with concentrations of doxycycline ranging from 2.5 μM to 40 μM for 3 days. The doxycycline-tolerant persisters were treated with 20 μg and 40 μg Azlocillin for 5 days. After 5 days of treatment, the cultures were pelleted, washed and plated on semisolid BSK-II agarose plates for minimum 21 days. The plates were incubated for regrowth and colonies are counted. The study was performed thrice independently.

A further assay deals with Borrelia isolate CA8 Bss. Kind of assay: Time-kill studies. The format is cell-based, B. burgdorferi sensu stricto. The following applies: 1.25 μM, CA8 strain. As for the experimental part:
Time-kill studies were performed with Borrelia isolate CA8 Bss with azlocillin sodium and cefotaxime acid. To determine the rate of antimicrobial activity, 10^6/ml Borrelia cultures were grown in BSK-II medium with drugs at different concentrations. BSK-II medium with no drugs is used as a control. The antibacterial activity was determined by counting bacteria at 24 hours, 48 hours and 72 hours. The experiment was done once with triplicates.

In the case of `CC1(C)S[C@@H]2[C@H](NC(=O)[C@H](NC(=O)N3CCNC3=O)c3ccccc3)C(=O)N2[C@H]1C(=O)O` [Azlocillin sodium], in the assay with Borrelia cultures, the “efficacy (Borrelia cell viability assay)” value was approximately 99%. Besides, the MIC with Borrelia [1] is not above 3 µM. In the assay with Borrelia [2], the minimum bactericidal concentration (MBC) (in general, the smallest concentration meeting the test's criterion for killing) is not above 10 µM. The “elimination of Borrelia infection in vivo (failure to culture live spirochetes from tissues after treatment)” value in the assay with Bb is reported as “very effective in eliminating Borrelia infection”. The “elimination of doxycycline-tolerant Borrelia persisters” value in assay [3] (20 μg) and in assay [3] (40 μg) was “completely eliminated” throughout.
In the assay on Borrelia [1], `Cc1nnc(SCC2=C(C(=O)O)N3C(=O)[C@@H](NC(=O)Cn4cnnn4)[C@H]3SC2)s1` [Cefazolin sodium] had an MIC not above 3 µM.
`CO/N=C(\C(=O)N[C@@H]1C(=O)N2C(C(=O)O)=C(COC(C)=O)CS[C@H]12)c1csc(N)n1` [Cefotaxime acid] displayed an MIC against Borrelia [1] not above 3 µM. In addition, in the assay on Borrelia [2], the MBC is not above 10 µM. The “decrease of initial Borrelia inoculum, time-kill” value in the assay with Borrelia isolate CA8 Bss is 1 log10-unit. For the same molecule, the “elimination of Borrelia infection in vivo (failure to culture live spirochetes from tissues after treatment)” value in the assay with Bb is recorded as “very effective in eliminating Borrelia infection”. Also, in assay [3] (40 μg), the “elimination of doxycycline-tolerant Borrelia persisters” value is “killed the Borrelia persisters completely”.
For the molecule `CC(=O)OCC1=C(C(=O)O)N2C(=O)[C@@H](NC(=O)Cc3cccs3)[C@H]2SC1` [Cephalothin sodium], the “efficacy (Borrelia cell viability assay)” value with Borrelia cultures is given as approximately 99%. In addition, the MIC in the assay with Borrelia [1] is not above 3 µM.
For `COc1cccc2c1C(=O)c1c(O)c3c(c(O)c1C2=O)C[C@@](O)(C(=O)CO)C[C@@H]3O[C@H]1C[C@H](N)[C@H](O)[C@H](C)O1` [Doxorubicin hydrochloride], in the assay on Borrelia cultures (BacTiter-Glo Assay, FIG. 1A), the “concentration uniformly effective against Bb” value came out at 0.625 µM. For the same molecule, the MIC with Borrelia [1] is less than 1 µM. The molecule further came in with a minimal bactericidal concentration (MBC) in the assay with Borrelia [2] of less than 1.5 µM.
For the molecule `COc1cccc2c1C(=O)c1c(O)c3c(c(O)c1C2=O)C[C@@](O)(C(=O)CO)C[C@@H]3O[C@H]1C[C@H](N)[C@@H](O)[C@H](C)O1` [Epirubicin hydrochloride], in the assay on Borrelia cultures (BacTiter-Glo Assay, FIG. 1A), the “concentration uniformly effective against Bb” value is 0.625 µM. In the assay with Borrelia [1], this molecule yielded an MIC of less than 1 µM. The minimum bactericidal concentration (MBC) against Borrelia [2] is less than 1.5 µM.
In the assay with Borrelia [2], `CC(=O)[C@]1(O)Cc2c(O)c3c(c(O)c2[C@@H](O[C@H]2C[C@H](N)[C@H](O)[C@H](C)O2)C1)C(=O)c1ccccc1C3=O` [Idarubicin HCl] gave a minimal bactericidal concentration (MBC) not above 10 µM.
`CC(=O)NC[C@H]1CN(c2ccc(N3CCOCC3)c(F)c2)C(=O)O1` [Linezolide] had an MIC against Borrelia [1] not above 3 µM.
Turning to `CCN(CC)C(=S)SSC(=S)N(CC)CC` [Tetraethylthiuram disulfide], the “concentration showing complete Borrelia cell inhibition” value with Borrelia cultures (BacTiter-Glo Assay, FIG. 1A) was 1.25 µM. For the same molecule, the MIC against Borrelia [1] was not above 3 µM. The MBC in the assay with Borrelia [2] is not above 10 µM.
In the assay on Borrelia [2], `CO[C@@H]1[C@@H](O[C@@H]2O[C@H](C)[C@@H](O[C@H]3C[C@@](C)(O)[C@@H](OC(=O)CC(C)C)[C@H](C)O3)[C@H](N(C)C)[C@H]2O)[C@@H](CC=O)C[C@@H](C)[C@@H](O)/C=C/C=C/C[C@@H](C)OC(=O)C[C@H]1O` [leucomycin] registered a minimum bactericidal concentration (MBC) not above 10 µM.
